Measurements from PubChem BioAssay AID2060347 (Molecular Pharmacology Branch, DTP, NCI, 2025).
pIC50: −log10 of the molar value. Several values for one entry are separate records, joined by “and”; a condition that tells them apart may be missing. Equal entries are not always repeated. Activity calls are given as the source filed them. How the source made its calls: active means viability on the fitted dose curve at most 10% of control; inactive means the rest.

Tested on: 817829-284-R-J1-PDC spheroids with HUVEC/MSC, viability
Experiment: Anticancer human tumor 817829-284-R-J1-PDC patient-derived colon adenocarcinoma cell line growth inhibition [TAK]
Conditions: for viability, T/C: stronger effect = lower value; for IC50: compound alone
Text: Combinatorial screen of targeted agents with TAK-243 and ipatasertib in multi-cell type tumor spheroids
A high-throughput screen of multi-cell type tumor spheroids was designed to identify active combinations of targeted small molecules and TAK-243 or ipatasertib. Complex spheroids include a stromal component modeled by human endothelial cells (HUVEC) and fibroblasts modeled by human mesenchymal stem cells (MSCs). The concentration ranges selected for each drug and investigational agent were based upon clinically achievable concentrations if the clinical Cmax of the agent was known.
Compounds. The drugs and investigational agents: TAK-243 (785004), ipatasertib (767898), everolimus (733504), selumetinib (741078), bortezomib (756655), trametinib (758246), ixazomib (758254), vemurafenib (761431), dabrafenib (764134), sapanisertib (764658), alpelisib (765974), and copanlisib (816437), were obtained from the National Cancer Institute (NCI) Developmental Therapeutics Program Chemical Repository. The FDA-approved anticancer drug set is available from the NCI Developmental Therapeutics Program. […] The stock solutions were prepared in dimethyl sulfoxide (DMSO, Sigma-Aldrich, St. Louis, MO, cat. D2650) at 800-fold the tested concentration and stored at -70 degrees C prior to their use. All drugs and investigational agents were tested over a range starting from a high concentration at or near the clinical Cmax and decreasing in half-log increments. If the clinical Cmax for an agent had not been determined, the highest concentration tested was 10 microM.
NCI60 Cell Culture. NCI60 cell lines were obtained from the NCI Developmental Therapeutics Program Tumor Repository. For each lot of cells, the Repository performed Applied Biosystems AmpFLSTR Identifiler testing with PCR amplification to confirm consistency with the published Identifier STR profile for each cell line. Cells were kept in continuous culture for no more than 20 passages. The optimal seeding densities for each of the cell lines at each time point assessed were determined prior to performing the concentration response studies. Briefly, the NCI60 human tumor lines were grown as monolayers in RPMI 1640 medium supplemented with 10% FBS and 2 mmol/L L-glutamine.
An additional 2 lines were from the NCI60 cell line panel including melanomas, MALME-3M and SK-MEL-2. Pooled donor human umbilical vein endothelial cells (HUVEC, Lonza, cat. CC-2519) and human mesenchymal stem cells (hMSC, Lonza, cat. PT-2501) were purchased from Lonza (Walkersville, MD).
PDMR cell lines were grown in complete medium (DC medium): Dulbecco's modified Eagle's medium (DMEM)/F12 supplemented with 5% fetal bovine serum (FBS), 2 mM L-glutamine, 100 U/mL penicillin and 100 µg/ml streptomycin, 0.4 µg/ml hydrocortisone, 10 ng/ml epidermal growth factor (EGF) recombinant human protein, 24 µg/mL adenine, and 0.1 mg/mL primocin. During culture from frozen stock vials, PDMR cells were cultured in the same medium containing 10 µM Y-27632 (see Table 3). The PDCs were cultured in complete DMEM/F12 media without 10 microM Y-27632 dihydrochloride for at least two passages prior to the screen. The pooled donor HUVEC and hMSC were cultured in endothelial cell growth medium 2 (PromoCell, Heidelberg, Germany, cat. C-22011) and mesenchymal stem cell growth medium 2 (PromoCell, cat. C-28009), respectively. For all experiments, HUVEC and hMSC were used at passages </=5.
For the pre-screen, cell seeding densities were determined from a titration spanning the range from 5,000 to 313 cells per well. The mct-spheroids including 60% malignant cells, 25% HUVEC and 15% MSC dispensed as a mixture into U-bottom Ultra-Low Attachment 384-well plates (Corning, NY)
High-throughput Drug Combination Screening.
Prior to their inoculation into 384-well plates, malignant cells, HUVEC, and hMSC were removed from T flasks using TrypLE express (Thermo Fisher Scientific, cat. 12605036) and harvested by centrifugation for 5 min at 233 x g. […]

CC(=O)Nc1cccc(-n2c(=O)n(C3CC3)c(=O)c3c(Nc4ccc(I)cc4F)n(C)c(=O)c(C)c32)c1
viability, T/C (compound 94.9 pM): 104% and 103%
viability, T/C (compound 0.0003 µM): 93% and 94.2%
viability, T/C (compound 0.000949 µM): 85.1% and 82.9%
viability, T/C (compound 0.003 µM): 65.9% and 53.9%
viability, T/C (compound 0.00949 µM): 25.9% and 33.9%
viability, T/C (compound 0.03 µM): 10.8% and 11%
pIC50 (curve of compound): 8.34 and 8.38

CC(C)(C)c1nc(-c2cccc(NS(=O)(=O)c3c(F)cccc3F)c2F)c(-c2ccnc(N)n2)s1
viability, T/C (compound 0.0316 µM): 98.1% and 94%
viability, T/C (compound 0.1 µM): 87.5% and 82.2%
viability, T/C (compound 0.316 µM): 54.2% and 63.3%
outcome (compound 1 µM): inactive
viability, T/C (compound 1 µM): 31%
viability, T/C (compound 3.16 µM): 64.7% and 54.7%
viability, T/C (compound 10 µM): 46.4% and 50.4%

CC(C)CC(NC(=O)C(Cc1ccccc1)NC(=O)c1cnccn1)B(O)O (centres undefined)
viability, T/C (compound 31.6 pM): 102% and 95.1%
viability, T/C (compound 0.0001 µM): 99.1% and 89.3%
viability, T/C (compound 0.000316 µM): 98.6% and 94.7%
viability, T/C (compound 0.001 µM): 89.5% and 98.6%
viability, T/C (compound 0.00316 µM): 103% and 99.9%
pIC50 (curve of compound): 8.25 and < 8.00

CC(C)CC(NC(=O)CNC(=O)c1cc(Cl)ccc1Cl)B1OC(=O)CC(CC(=O)O)(C(=O)O)O1 (centres undefined)
viability, T/C (compound 0.000316 µM): 106% and 97.9%
viability, T/C (compound 0.001 µM): 107% and 100%
viability, T/C (compound 0.00316 µM): 111% and 99.2%
viability, T/C (compound 0.01 µM): 103% and 105%
viability, T/C (compound 0.0316 µM): 3.63% and 22.3%
viability, T/C (compound 0.1 µM): 0.47% and 0.3%
pIC50 (curve of compound): 7.73 and 7.68

CC(C)NCC(C(=O)N1CCN(c2ncnc3c2C(C)CC3O)CC1)c1ccc(Cl)cc1 (centres undefined)
viability, T/C (compound 3 µM): 15.9% [middle of 10 runs]
viability, T/C (compound 9.49 µM): 11.2% [middle of 10 runs]
viability, T/C (compound 30 µM): 6.54% [middle of 10 runs]
IC50 (run of 02/28/2020): 1.55 µM [middle of 6 runs]
IC50 (run of 03/19/2020): 665 nM [middle of 4 runs]

CC(C)n1nc(-c2ccc3oc(N)nc3c2)c2c(N)ncnc21
viability, T/C (compound 0.000316 µM): 101% and 104%
viability, T/C (compound 0.001 µM): 102% and 99%
viability, T/C (compound 0.00316 µM): 101% and 102%
viability, T/C (compound 0.01 µM): 93% and 92.9%
viability, T/C (compound 0.0316 µM): 56.8% and 61.2%
viability, T/C (compound 0.1 µM): 21.3% and 33.1%
pIC50 (curve of compound): 7.40 and 7.30

CCCS(=O)(=O)Nc1ccc(F)c(C(=O)c2c[nH]c3ncc(-c4ccc(Cl)cc4)cc23)c1F
viability, T/C (compound 0.316 µM): 89.1% and 93%
viability, T/C (compound 1 µM): 81.3% and 89.1%
viability, T/C (compound 3.16 µM): 62.7% and 34.4%
viability, T/C (compound 10 µM): 12.4% and 10.9%
viability, T/C (compound 31.6 µM): 56.8% and 26.3%
viability, T/C (compound 100 µM): 59.9% and 43.6%
pIC50 (curve of compound): 5.18 and 5.64

COC1CC2CCC(C)C(O)(O2)C(=O)C(=O)N2CCCCC2C(=O)OC(C(C)CC2CCC(OCCO)C(OC)C2)CC(=O)C(C)C=C(C)C(O)C(OC)C(=O)C(C)CC(C)C=CC=CC=C1C (centres undefined)
viability, T/C (compound 0.000316 µM): 104% and 110%
viability, T/C (compound 0.001 µM): 99.8% and 102%
viability, T/C (compound 0.00316 µM): 94% and 99.6%
viability, T/C (compound 0.01 µM): 81% and 86.2%
viability, T/C (compound 0.0316 µM): 79.2% and 82.3%
viability, T/C (compound 0.1 µM): 63.9% and 75%
pIC50 (curve of compound): < 7.00

COc1c(OCCCN2CCOCC2)ccc2c3n(c(=NC(=O)c4cnc(N)nc4)nc12)CCN3
viability, T/C (compound 0.00316 µM): 104% and 105%
viability, T/C (compound 0.01 µM): 90.7% and 96.1%
viability, T/C (compound 0.0316 µM): 63.8% and 44.4%
viability, T/C (compound 0.1 µM): 18.7% and 13.9%
viability, T/C (compound 0.316 µM): 3.92% and 2.94%
viability, T/C (compound 1 µM): 2.85% and 3.44%
pIC50 (curve of compound): 7.36 and 7.54

Cc1nc(NC(=O)N2CCCC2C(N)=O)sc1-c1ccnc(C(C)(C)C(F)(F)F)c1 (centres undefined)
viability, T/C (compound 0.0316 µM): 96.8% and 102%
viability, T/C (compound 0.1 µM): 98.7% and 96.4%
viability, T/C (compound 0.316 µM): 94.8% and 94.7%
viability, T/C (compound 1 µM): 88.1% and 93%
viability, T/C (compound 3.16 µM): 79.6% and 80%
viability, T/C (compound 10 µM): 48.1% and 49.1%
pIC50 (curve of compound): 5.03 and 5.01

Cn1cnc2c(F)c(Nc3ccc(Br)cc3Cl)c(C(=O)NOCCO)cc21
viability, T/C (compound 0.00949 µM): 89.3% and 94.4%
viability, T/C (compound 0.03 µM): 86.4% and 83.3%
viability, T/C (compound 0.0949 µM): 79% and 79.5%
viability, T/C (compound 0.3 µM): 72% and 66.6%
viability, T/C (compound 0.949 µM): 55.7% and 53.5%
viability, T/C (compound 3 µM): 25.6% and 20.5%
pIC50 (curve of compound): 5.94 and 6.02

COC1CC2CCC(C)C(O)(O2)C(=O)C(=O)N2CCCCC2C(=O)OC(C(C)CC2CCC(OCCO)C(OC)C2)CC(=O)C(C)C=C(C)C(O)C(OC)C(=O)C(C)CC(C)C=CC=CC=C1C (centres undefined) + CC(C)NCC(C(=O)N1CCN(c2ncnc3c2C(C)CC3O)CC1)c1ccc(Cl)cc1
pIC50 (curve of first compound, second compound 0.3 µM): 7.84
pIC50 (curve of first compound, second compound 0.949 µM): 9.32
pIC50 (curve of first compound, second compound 3 µM): > 9.50
pIC50 (curve of first compound, second compound 9.49 µM): > 9.50
pIC50 (curve of first compound, second compound 30 µM): > 9.50
viability, T/C (second compound 0.3 µM, first compound 0.000316 µM): 90.9%
viability, T/C (second compound 0.3 µM, first compound 0.001 µM): 76.7%
viability, T/C (second compound 0.3 µM, first compound 0.00316 µM): 61.8%
viability, T/C (second compound 0.3 µM, first compound 0.01 µM): 49.9%
viability, T/C (second compound 0.3 µM, first compound 0.0316 µM): 49.7%
viability, T/C (second compound 0.3 µM, first compound 0.1 µM): 40.8%
viability, T/C (second compound 0.949 µM, first compound 0.000316 µM): 59%
viability, T/C (second compound 0.949 µM, first compound 0.001 µM): 33.4%
viability, T/C (second compound 0.949 µM, first compound 0.00316 µM): 33.7%
viability, T/C (second compound 0.949 µM, first compound 0.01 µM): 31.7%
viability, T/C (second compound 0.949 µM, first compound 0.0316 µM): 28.6%
viability, T/C (second compound 0.949 µM, first compound 0.1 µM): 28.9%
viability, T/C (second compound 3 µM, first compound 0.000316 µM): 23.3%
viability, T/C (second compound 3 µM, first compound 0.001 µM): 19.9%
viability, T/C (second compound 3 µM, first compound 0.00316 µM): 16.4%
viability, T/C (second compound 3 µM, first compound 0.01 µM): 16%
viability, T/C (second compound 3 µM, first compound 0.0316 µM): 18.3%
viability, T/C (second compound 3 µM, first compound 0.1 µM): 13.7%
viability, T/C (second compound 9.49 µM, first compound 0.000316 µM): 12.9%
viability, T/C (second compound 9.49 µM, first compound 0.001 µM): 12.5%
viability, T/C (second compound 9.49 µM, first compound 0.00316 µM): 12.6%
viability, T/C (second compound 9.49 µM, first compound 0.01 µM): 12.7%
viability, T/C (second compound 9.49 µM, first compound 0.0316 µM): 9.91%
viability, T/C (second compound 9.49 µM, first compound 0.1 µM): 12.8%
viability, T/C (second compound 30 µM, first compound 0.000316 µM): 7.9%
viability, T/C (second compound 30 µM, first compound 0.001 µM): 7.4%
viability, T/C (second compound 30 µM, first compound 0.00316 µM): 6.49%
viability, T/C (second compound 30 µM, first compound 0.01 µM): 6.32%
viability, T/C (second compound 30 µM, first compound 0.0316 µM): 6.79%
viability, T/C (second compound 30 µM, first compound 0.1 µM): 6.34%
